Reference: ChEMBL document CHEMBL3822442, “Synthesis and Pharmacological Characterization of Novel Glucagon-like Peptide-2 (GLP-2) Analogues with Low Systemic Clearance” (J Med Chem, 2016)
Active and inactive are the calls of the source. The calls are words filed in the database; no cut-off is given here.

What was measured:
[1] = biological target: Glucagon receptor (Homo sapiens) (UniProt P47871); experiment: Agonist activity at human GCGR expressed in HEK293 cells up to 1000 nM after 5 hrs by luciferase reporter gene assay; type: cell-based
Glucagon receptor (Homo sapiens), sequence (P47871 whole entry): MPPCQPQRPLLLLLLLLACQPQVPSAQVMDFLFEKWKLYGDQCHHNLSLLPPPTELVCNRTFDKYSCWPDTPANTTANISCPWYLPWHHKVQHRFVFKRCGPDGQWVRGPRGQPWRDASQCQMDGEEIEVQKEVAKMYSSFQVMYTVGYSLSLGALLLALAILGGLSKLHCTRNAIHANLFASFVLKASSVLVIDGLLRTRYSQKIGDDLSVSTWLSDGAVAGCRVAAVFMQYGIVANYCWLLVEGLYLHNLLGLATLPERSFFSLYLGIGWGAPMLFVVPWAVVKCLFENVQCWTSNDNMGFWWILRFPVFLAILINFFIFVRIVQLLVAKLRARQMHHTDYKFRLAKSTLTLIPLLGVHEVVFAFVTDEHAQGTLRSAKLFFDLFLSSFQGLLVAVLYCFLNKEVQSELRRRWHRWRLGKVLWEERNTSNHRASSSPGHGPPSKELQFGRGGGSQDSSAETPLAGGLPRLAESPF

HEK293 = experiment: Selectivity ratio of EC50 for human GLP1R expressed in HEK293 cells to EC50 for human GLP2R expressed in HEK293; type: cell-based
[2] = biological target: T1, Glucagon-like peptide 1 receptor (Homo sapiens, UniProt P43220); experiment: Agonist activity at human GLP1R expressed in HEK293 cells at 30 nM after 5 hrs by luciferase reporter gene assay; type: cell-based
T1 sequence (P43220 whole entry): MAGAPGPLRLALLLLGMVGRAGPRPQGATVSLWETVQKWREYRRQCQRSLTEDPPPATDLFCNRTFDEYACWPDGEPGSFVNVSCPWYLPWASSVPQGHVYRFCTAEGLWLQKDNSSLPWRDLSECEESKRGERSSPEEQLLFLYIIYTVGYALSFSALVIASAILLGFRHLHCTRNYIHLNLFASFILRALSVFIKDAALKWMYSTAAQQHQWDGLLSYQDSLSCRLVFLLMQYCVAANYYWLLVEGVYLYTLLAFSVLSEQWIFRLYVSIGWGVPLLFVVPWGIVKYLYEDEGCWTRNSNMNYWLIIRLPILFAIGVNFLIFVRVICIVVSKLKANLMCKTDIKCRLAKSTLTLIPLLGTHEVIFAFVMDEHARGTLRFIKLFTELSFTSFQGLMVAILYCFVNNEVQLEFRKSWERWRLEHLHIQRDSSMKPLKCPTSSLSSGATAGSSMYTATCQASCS

[3] = biological target: T1, Glucagon-like peptide 1 receptor; experiment: Agonist activity at human GLP1R expressed in HEK293 cells after 5 hrs by luciferase reporter gene assay; type: cell-based
[4] = biological target: T2, Glucagon-like peptide 2 receptor (Homo sapiens, UniProt O95838); experiment: Agonist activity at human GLP2R expressed in HEK293 cells after 5 hrs by luciferase reporter gene assay; type: cell-based
T2 sequence (O95838 whole entry): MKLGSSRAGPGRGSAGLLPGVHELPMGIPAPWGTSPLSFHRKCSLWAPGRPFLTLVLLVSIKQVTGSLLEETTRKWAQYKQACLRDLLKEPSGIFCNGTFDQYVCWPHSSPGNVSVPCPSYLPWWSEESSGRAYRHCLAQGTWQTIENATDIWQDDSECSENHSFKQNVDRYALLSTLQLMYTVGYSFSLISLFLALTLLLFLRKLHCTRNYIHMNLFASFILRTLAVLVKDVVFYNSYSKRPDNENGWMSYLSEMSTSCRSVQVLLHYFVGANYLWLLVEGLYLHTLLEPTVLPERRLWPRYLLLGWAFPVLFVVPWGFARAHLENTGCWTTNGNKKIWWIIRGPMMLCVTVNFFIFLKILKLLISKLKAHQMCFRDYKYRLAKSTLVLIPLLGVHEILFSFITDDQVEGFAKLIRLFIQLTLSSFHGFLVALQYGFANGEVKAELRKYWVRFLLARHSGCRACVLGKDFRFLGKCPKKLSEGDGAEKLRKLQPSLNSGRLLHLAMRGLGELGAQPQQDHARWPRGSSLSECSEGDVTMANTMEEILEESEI

[5] = biological target: Glucagon receptor (Homo sapiens) (UniProt P47871); experiment: Agonist activity at human GCGR expressed in HEK293 cells after 5 hrs by luciferase reporter gene assay; type: cell-based
[6] = Systemic clearance in Sprague-Dawley rat at 0.2 mg/kg, iv through cassette dosing measured up to 300 mins by LC/MS/MS analysis; type: ADME, organism-based; details: in vivo

Row | Activity [1] | Efficacy [2] [%] | EC50 [3] [nM] | EC50 [4] [nM] | Activity [5] | clearance [6] [mL/min/kg] | SMILES | Ratio EC50 (HEK293)
1 | inactive | – | – | – | – | – | CCCCC(NC(=O)[C@H](CCC(=O)O)NC(=O)[C@H](CC(=O)O)NC(=O)[C@H](CO)NC(=O)[C@H](Cc1ccccc1)NC(=O)[C@H](CO)NC(=O)CNC(=O)[C@H](CC(=O)O)NC(=O)CNC(=O)[C@H](N)Cc1cnc[nH]1)C(=O)N[C@@H](CC(N)=O)C(=O)N[C@H](C(=O)N[C@H](C(=O)N[C@@H](CC(C)C)C(=O)N[C@@H](CC(=O)O)C(=O)NC(Cc1ccc(-c2ccccc2)cc1)C(=O)N[C@H](CC(C)C)C(=O)N[C@H](C)C(=O)N[C@H](C)C(=O)N[C@H](CCCNC(=N)N)C(=O)N[C@H](CC(=O)O)C(=O)N[C@H](Cc1ccccc1)C(=O)N[C@@H](C(=O)N[C@H](CC(N)=O)C(=O)N[C@@H](Cc1c[nH]c2ccccc12)C(=O)N[C@@H](CC(C)C)C(=O)N[C@H](C(=O)N[C@@H](CCC(N)=O)C(=O)N[C@H](C(=O)N[C@H](CCCCN)C(N)=O)[C@@H](C)O)[C@H](C)CC)[C@@H](C)CC)[C@H](C)CC)[C@@H](C)O (some centres undefined) | > 2800
2 | inactive | – | – | – | – | – | CCCCC(NC(=O)[C@H](CCC(=O)O)NC(=O)[C@H](CC(=O)O)NC(=O)[C@H](CO)NC(=O)[C@H](Cc1ccccc1)NC(=O)[C@H](CO)NC(=O)CNC(=O)[C@H](CC(=O)O)NC(=O)CNC(=O)[C@H](N)Cc1cnc[nH]1)C(=O)N[C@@H](CC(N)=O)C(=O)N[C@H](C(=O)N[C@H](C(=O)N[C@@H](CC(C)C)C(=O)N[C@@H](CC(=O)O)C(=O)NC(Cc1ccc(Cl)cc1)C(=O)N[C@H](CC(C)C)C(=O)N[C@H](C)C(=O)N[C@H](C)C(=O)N[C@H](CCCNC(=N)N)C(=O)N[C@H](CC(=O)O)C(=O)N[C@H](Cc1ccccc1)C(=O)N[C@@H](C(=O)N[C@H](CC(N)=O)C(=O)N[C@@H](Cc1c[nH]c2ccccc12)C(=O)N[C@@H](CC(C)C)C(=O)N[C@H](C(=O)N[C@@H](CCC(N)=O)C(=O)N[C@H](C(=O)N[C@H](CCCCN)C(N)=O)[C@@H](C)O)[C@H](C)CC)[C@@H](C)CC)[C@H](C)CC)[C@@H](C)O (some centres undefined) | > 4500
3 | inactive | – | – | – | – | – | CCCCC(NC(=O)[C@H](CCC(=O)O)NC(=O)[C@H](CC(=O)O)NC(=O)[C@H](CO)NC(=O)[C@H](Cc1ccccc1)NC(=O)[C@H](CO)NC(=O)CNC(=O)[C@H](CC(=O)O)NC(=O)CNC(=O)[C@H](N)Cc1cnc[nH]1)C(=O)N[C@@H](CC(N)=O)C(=O)N[C@H](C(=O)N[C@H](C(=O)N[C@@H](CC(C)C)C(=O)N[C@@H](CC(=O)O)C(=O)NC(Cc1ccc(N)cc1)C(=O)N[C@H](CC(C)C)C(=O)N[C@H](C)C(=O)N[C@H](C)C(=O)N[C@H](CCCNC(=N)N)C(=O)N[C@H](CC(=O)O)C(=O)N[C@H](Cc1ccccc1)C(=O)N[C@@H](C(=O)N[C@H](CC(N)=O)C(=O)N[C@@H](Cc1c[nH]c2ccccc12)C(=O)N[C@@H](CC(C)C)C(=O)N[C@H](C(=O)N[C@@H](CCC(N)=O)C(=O)N[C@H](C(=O)N[C@H](CCCCN)C(N)=O)[C@@H](C)O)[C@H](C)CC)[C@@H](C)CC)[C@H](C)CC)[C@@H](C)O (some centres undefined) | > 7600
4 | inactive | – | – | – | – | – | CCCCC(NC(=O)[C@H](CCC(=O)O)NC(=O)[C@H](CC(=O)O)NC(=O)[C@H](CO)NC(=O)[C@H](Cc1ccccc1)NC(=O)[C@H](CO)NC(=O)CNC(=O)[C@H](CC(=O)O)NC(=O)CNC(=O)[C@H](N)Cc1cnc[nH]1)C(=O)N[C@@H](CC(N)=O)C(=O)N[C@H](C(=O)N[C@H](C(=O)N[C@@H](CC(C)C)C(=O)N[C@@H](CC(=O)O)C(=O)NC(CC1CCCCC1)C(=O)N[C@H](CC(C)C)C(=O)N[C@H](C)C(=O)N[C@H](C)C(=O)N[C@H](CCCNC(=N)N)C(=O)N[C@H](CC(=O)O)C(=O)N[C@H](Cc1ccccc1)C(=O)N[C@@H](C(=O)N[C@H](CC(N)=O)C(=O)N[C@@H](Cc1c[nH]c2ccccc12)C(=O)N[C@@H](CC(C)C)C(=O)N[C@H](C(=O)N[C@@H](CCC(N)=O)C(=O)N[C@H](C(=O)N[C@H](CCCCN)C(N)=O)[C@@H](C)O)[C@H](C)CC)[C@@H](C)CC)[C@H](C)CC)[C@@H](C)O (some centres undefined) | > 10000
5 | inactive | – | – | – | – | – | CCCCC(NC(=O)[C@@H](CCC(=O)O)NC(=O)[C@@H](CC(=O)O)NC(=O)[C@@H](CO)NC(=O)[C@@H](Cc1ccccc1)NC(=O)[C@@H](CO)NC(=O)CNC(=O)[C@@H](CC(=O)O)NC(=O)CNC(=O)[C@@H](N)Cc1cnc[nH]1)C(=O)N[C@H](CC(N)=O)C(=O)N[C@@H](C(=O)N[C@@H](C(=O)N[C@H](CC(C)C)C(=O)N[C@H](CC(=O)O)C(=O)NC(Cc1cccc2ccccc12)C(=O)N[C@@H](CC(C)C)C(=O)N[C@@H](C)C(=O)N[C@@H](C)C(=O)N[C@@H](CCCNC(=N)N)C(=O)N[C@@H](CC(=O)O)C(=O)N[C@@H](Cc1ccccc1)C(=O)N[C@H](C(=O)N[C@@H](CC(N)=O)C(=O)N[C@H](Cc1c[nH]c2ccccc12)C(=O)N[C@H](CC(C)C)C(=O)N[C@@H](C(=O)N[C@H](CCC(N)=O)C(=O)N[C@@H](C(=O)N[C@@H](CCCCN)C(N)=O)[C@H](C)O)[C@@H](C)CC)[C@H](C)CC)[C@@H](C)CC)[C@H](C)O (some centres undefined) | > 5200
6 | – | 39 | 83 | 0.09 | inactive | 1.3 | CCCCC(NC(=O)[C@H](CCC(=O)O)NC(=O)[C@H](CC(=O)O)NC(=O)[C@H](CO)NC(=O)[C@H](Cc1ccccc1)NC(=O)[C@H](CO)NC(=O)CNC(=O)[C@H](CC(=O)O)NC(=O)CNC(=O)[C@@H](N)Cc1cnc[nH]1)C(=O)N[C@H](Cc1ccsc1)C(=O)N[C@H](C(=O)N[C@H](C(=O)N[C@@H](CC(C)C)C(=O)N[C@@H](CC(=O)O)C(=O)N[C@@H](CC(N)=O)C(=O)N[C@@H](CC(C)C)C(=O)N[C@@H](C)C(=O)N[C@@H](C)C(=O)N[C@@H](CCCNC(=N)N)C(=O)N[C@@H](CC(=O)O)C(=O)N[C@@H](Cc1ccccc1)C(=O)N[C@H](C(=O)N[C@@H](CC(N)=O)C(=O)N[C@@H](Cc1c[nH]c2ccccc12)C(=O)N[C@@H](CC(C)C)C(=O)N[C@H](C(=O)N[C@@H](CCC(N)=O)C(=O)N[C@H](C(=O)N[C@@H](CCCCN)C(N)=O)[C@@H](C)O)[C@@H](C)CC)[C@@H](C)CC)[C@@H](C)CC)[C@@H](C)O (some centres undefined) | 920
7 | inactive | – | – | – | – | – | CCCCC(NC(=O)[C@@H](CCC(=O)O)NC(=O)[C@@H](CC(=O)O)NC(=O)[C@@H](CO)NC(=O)[C@@H](Cc1ccccc1)NC(=O)[C@@H](CO)NC(=O)CNC(=O)[C@@H](CC(=O)O)NC(=O)CNC(=O)[C@@H](N)Cc1cnc[nH]1)C(=O)N[C@H](CC(N)=O)C(=O)N[C@@H](C(=O)N[C@@H](C(=O)N[C@H](CC(C)C)C(=O)N[C@H](CC(=O)O)C(=O)NC(Cc1ccc2ccccc2c1)C(=O)N[C@@H](CC(C)C)C(=O)N[C@@H](C)C(=O)N[C@@H](C)C(=O)N[C@@H](CCCNC(=N)N)C(=O)N[C@@H](CC(=O)O)C(=O)N[C@@H](Cc1ccccc1)C(=O)N[C@H](C(=O)N[C@@H](CC(N)=O)C(=O)N[C@H](Cc1c[nH]c2ccccc12)C(=O)N[C@H](CC(C)C)C(=O)N[C@@H](C(=O)N[C@H](CCC(N)=O)C(=O)N[C@@H](C(=O)N[C@@H](CCCCN)C(N)=O)[C@H](C)O)[C@@H](C)CC)[C@H](C)CC)[C@@H](C)CC)[C@H](C)O (some centres undefined) | > 7600
8 | – | 80 | 40 | 0.1 | inactive | 1.2 | CCCCC(NC(=O)[C@H](CCC(=O)O)NC(=O)[C@H](CC(=O)O)NC(=O)[C@H](CO)NC(=O)[C@H](Cc1ccccc1)NC(=O)[C@H](CO)NC(=O)CNC(=O)[C@H](CC(=O)O)NC(=O)CNC(=O)[C@@H](N)Cc1cnc[nH]1)C(=O)N[C@H](Cc1c[nH]c2ccccc12)C(=O)N[C@H](C(=O)N[C@H](C(=O)N[C@@H](CC(C)C)C(=O)N[C@@H](CC(=O)O)C(=O)N[C@@H](CC(N)=O)C(=O)N[C@@H](CC(C)C)C(=O)N[C@@H](C)C(=O)N[C@@H](C)C(=O)N[C@@H](CCCNC(=N)N)C(=O)N[C@@H](CC(=O)O)C(=O)N[C@@H](Cc1ccccc1)C(=O)N[C@H](C(=O)N[C@@H](CC(N)=O)C(=O)N[C@@H](Cc1c[nH]c2ccccc12)C(=O)N[C@@H](CC(C)C)C(=O)N[C@H](C(=O)N[C@@H](CCC(N)=O)C(=O)N[C@H](C(=O)N[C@@H](CCCCN)C(N)=O)[C@@H](C)O)[C@@H](C)CC)[C@@H](C)CC)[C@@H](C)CC)[C@@H](C)O (some centres undefined) | 400
